Test results reported in the supplement of paper PMC11451515.

Test system: NOMO1
Test: cell viability relative to DMSO control; higher = less cytotoxic
Conditions: 48 h
Summary of the method: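 Viability, reported as a per-plate percentage of DMSO wells with cell-free wells as background, came from CellTiter-Glo One luminescence. Reading took place after 48 h at 37°C. Before that, NOMO1 or SEM (500 cells/well) or P12-Ichikawa (1000 cells/well) leukemia cells, adapted for at least four passages in each medium, were seeded in 1536-well plates (5 μl) and pin-dosed with library compounds in DMSO, 47 μM to 0.79 nM over 11 threefold points.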

[1] = RPMI 5 mM glucose + 10% FBS, 0.000781 µM
[2] = RPMI 5 mM glucose + 10% FBS, 0.00234 µM
[3] = RPMI 5 mM glucose + 10% FBS, 0.00702 µM
[4] = RPMI 5 mM glucose + 10% FBS, 0.0211 µM
[5] = RPMI 5 mM glucose + 10% FBS, 0.0632 µM
[6] = RPMI 5 mM glucose + 10% FBS, 0.19 µM
[7] = RPMI 5 mM glucose + 10% FBS, 0.569 µM
[8] = RPMI 5 mM glucose + 10% FBS, 1.71 µM
[9] = RPMI 5 mM glucose + 10% FBS, 5.12 µM
[10] = RPMI 5 mM glucose + 10% FBS, 15.4 µM
[11] = RPMI 5 mM glucose + 10% FBS, 46.1 µM
[12] = RPMI 5 mM glucose + 10% dialyzed FBS, 0.000781 µM
[13] = RPMI 5 mM glucose + 10% dialyzed FBS, 0.00234 µM
[14] = RPMI 5 mM glucose + 10% dialyzed FBS, 0.00702 µM
[15] = RPMI 5 mM glucose + 10% dialyzed FBS, 0.0211 µM
[16] = RPMI 5 mM glucose + 10% dialyzed FBS, 0.0632 µM
[17] = RPMI 5 mM glucose + 10% dialyzed FBS, 0.19 µM
[18] = RPMI 5 mM glucose + 10% dialyzed FBS, 0.569 µM
[19] = RPMI 5 mM glucose + 10% dialyzed FBS, 1.71 µM
[20] = RPMI 5 mM glucose + 10% dialyzed FBS, 5.12 µM
[21] = RPMI 5 mM glucose + 10% dialyzed FBS, 15.4 µM
[22] = RPMI 5 mM glucose + 10% dialyzed FBS, 46.1 µM
[23] = HPLM + 10% dialyzed FBS, 0.000781 µM
[24] = HPLM + 10% dialyzed FBS, 0.00234 µM
[25] = HPLM + 10% dialyzed FBS, 0.00702 µM
[26] = HPLM + 10% dialyzed FBS, 0.0211 µM
[27] = HPLM + 10% dialyzed FBS, 0.0632 µM
[28] = HPLM + 10% dialyzed FBS, 0.19 µM
[29] = HPLM + 10% dialyzed FBS, 0.569 µM
[30] = HPLM + 10% dialyzed FBS, 1.71 µM
[31] = HPLM + 10% dialyzed FBS, 5.12 µM
[32] = HPLM + 10% dialyzed FBS, 15.4 µM
[33] = HPLM + 10% dialyzed FBS, 46.1 µM

Compound	cell viability [1] [%]	cell viability [2] [%]	cell viability [3] [%]	cell viability [4] [%]	cell viability [5] [%]	cell viability [6] [%]	cell viability [7] [%]	cell viability [8] [%]	cell viability [9] [%]	cell viability [10] [%]	cell viability [11] [%]	cell viability [12] [%]	cell viability [13] [%]	cell viability [14] [%]	cell viability [15] [%]	cell viability [16] [%]	cell viability [17] [%]	cell viability [18] [%]	cell viability [19] [%]	cell viability [20] [%]	cell viability [21] [%]	cell viability [22] [%]	cell viability [23] [%]	cell viability [24] [%]	cell viability [25] [%]	cell viability [26] [%]	cell viability [27] [%]	cell viability [28] [%]	cell viability [29] [%]	cell viability [30] [%]	cell viability [31] [%]	cell viability [32] [%]	cell viability [33] [%]
CN(c1ncccc1CNc1nc(Nc2ccc3c(c2)CC(=O)N3)ncc1C(F)(F)F)[S+](C)(=O)[O-]	112	113	115	105	116	116	99.3	103	97.7	93.9	18.7	104	107	116	106	117	117	124	104	114	86.5	20.6											
COc1ccc(-c2cc3nccn3c(Nc3ncccc3C(N)=O)n2)cc1OC	90	95.3	118	107	99.7	111	95	103	102	92.7	103	106	106	113	95.2	116	107	106	105	107	109	101	125	111	107	117	124	111	110	96.6	109	89	93
CN\1C(=O)/C(=C(\N=C1N2CCCC[S+]2([O-])=O)C(=O)NCC3=CC=C(F)C=C3)O	113	105	116	124	116	107	112	123	115	113	106	123	116	119	123	111	119	113	107	118	105	99.2											
OC[C@H]1O[C@@H](O[C@@H]2[C@@H](CO)O[C@](O)(CO)[C@H]2O)[C@H](O)[C@@H](O)[C@H]1O	91.1	95.4	111	109	105	100	105	97.3	88.1	71.9	86.2	91.4	86.6	103	97.5	95.7	101	100	98.7	92.5	68.1	80.6	108	110	110	113	99.5	92.2	103	95.1	102	47.7	78.1
O=NN(CCCl)C(=O)NC1CCCCC1	99.2	95.4	113	95.2	102	108	115	56.6	100	110	102	102	102	93.5	105	111	97.7	113	93.6	99.2	109	99.7	91.4	114	110	94.8	105	107	113	110	111	97.4	109
Cc1ccccc1C(C(=O)NC1CCCCC1)N(C(=O)Cn1ccnc1C)c1cccc(F)c1 (configuration not stated)	88.6	93.9	102	91.9	93.9	109	106	91.7	90.7	86	97.3	104	85.9	104	106	99.1	116	100	91	91.4	93.3	80.7	96.4	93.1	122	119	123	111	108	90	100	99.2	89.4
COc1cc2nc(N(C)CCCNC(=O)C3CCCO3)nc(N)c2cc1OC (configuration not stated)	70.7	74	71.9	75.4	73.2	81.8	72.1	71.9	33.2	36	10	61.6	76.5	68.8	85	77.6	77.9	75.4	87.4	51.9	61.9	15.1	63.4	82.7	99.4	77.8	96.3	90.6	79.7	89.7	31.3	28	20
COc1cnc(N[S+](=O)([O-])c2ccc(N)cc2)nc1	122	118	114	112	124	131	138	128	125	110	48.2	110	118	123	125	121	127	114	125	98.5	97.5	63.5	111	114	106	125	125	119	114	130	114	84.5	31.1
